Results from patent US4937232A, “Inhibition of protein kinase C by long-chain bases” (priority 1988, dated 1990).
Entries after “also recorded” stand apart in the source; their conditions may differ. Like-named read-outs stand apart in the source and are kept apart here.

Experiments:
human neutrophils = experiment: Oxygen consumption (oxidative burst) of human neutrophils; format: cell-based; conditions: for IC50: read-out: Concentration required for 50% inhibition; for RATE of oxygen consumption, NO SPHINGANINE: activator alone
From the text: Human neutrophils were obtained by continuous flow leukapheresis from normal adults. Residual erythrocytes were removed by hypotonic lysis with a resulting purity of >95% neutrophils. Alternatively peripheral blood was obtained by phlebotomy and neutrophils were isolated by HESPAN (6% Hetastarch, 0.9% NaCl) sedimentaion of erythrocytes, centrifugation through lymphocyte separation medium (9.4% sodium diatrizoate, 6.2% Ficoll), and hypotonic lysis of residual erythrocytes. Isolated cells were resuspended in phosphate buffered saline (PBS)-glucose, containing 0.6 mM CaCl2, 2.6 mM KCl, 1.5 mM KH2 PO4, 0.5 mM MgCl2, 136 mM NaCl, 8 mM Na2 HPO4, 5.5 mM glucose.
Oxygen consumption was measured using a Clark-type electrode with YSI model 53 oxygen monitor. Assays were conducted at 37° C. with 6.5×10^6 cells per ml with a total volume of either 2.5 ml or 4 ml. Effectors were injected into the electrode chamber using a Hamilton syringe. Initial slopes after the addition of the stimuli were used for rate calculations. For activators with a lag prior to the onset of the oxidative burst, maximal rates following the lag were used.

protein kinase C [1] = experiment: Triton X-100 mixed micellar assay for protein kinase C activity; format: biochemical, rat; conditions: mixed micellar assay
Description: Protein kinase C was partially purified from rat brain as described by Hanrun et al (J. Biol. Chem., 260, 10043, 1985), which is hereby incorporated by reference.
Protein kinase C was assayed with Triton X-100 mixed micelles as described by Hanrun et al, (ibid.), Sphingosine was dried down with the lipid cofactors.

HL-60 cells = experiment: PMA-induced adherence (attachment) of HL-60 cells; format: cell-based, human; conditions: for inhibition of PMA-induced attachment: 8 nM PMA
Description: Cells were centrifuged at 600 g for 3 min, and added at 1×10^5 cells per well in 12-well culture dishes. Medium, PMA, and long-chain bases (prepared as the 1:1 molar complex with fatty acid-free bovine serum albumin) at the indicated concentrations were added for a total volume of 2.0 ml. After the desired times, the cells in suspension were counted and checked for viability (trypan blue exclusion) with a hemacytometer. The attached cells were quantitated by measuring DNA content according to the method of West et al (Anal. Biochem., 147, 289-295, 1985) and by assaying for acid phosphatase according to the method of Schnyder (J. Exp. Med., 148, 434-445, 1978).

protein kinase C [2] = experiment: Mixed micellar protein kinase C activity assay for lysosphingolipids (Table VI); format: biochemical; conditions: for Inhibition of Protein Kinase C, concentration giving 50% inhibition, (mol %): 0.3% Triton X-100, 1 mol % = 43 μM; for IC50: 0.3% Triton X-100 mixed micelles, 2 mol % dioleoylglycerol, read-out: Inhibition of Protein Kinase C, concentration giving 50% inhibition; for IC50 / inhibition of protein kinase C activity: 6 mol % phosphatidylserine; for inhibition of protein kinase C activity: 2 mol % sn-1,2-dioleoylglycerol, 100 μM Ca2+
Description: (§1) TABLE VI: Inhibition of protein kinase C activity and phorbol-dibutyrate binding by lysosphingolipids. […] The remaining two columns show the observed effects of the lysosphingolipids of protein kinase C activity and phorbol diester binding in vitro and in human platelets. Lysogangliosides were prepared from their parental gangliosides by hydrolysis in methanolic KOH esentially as described by Neuenhofer et al. in Bioch. 24, 525, 1985. During this preparation, with approximately 90-95% conversion, the N-acetate of N-acetylneuraminic acid is partially hydrolyzed. Fatty acids were partitioned into heptane after acidification of the methanolic reaction mixture. Galactosylsphingosine, glucosylsphingosine, and lactosylsphingosine were prepared as previously described for galactosylsphingosine (Radin, Lipids 9, 358, 1974) Sphingosylphosphorylcholine was prepared by hydrolysis in HCl-butanol (Kaller, Biochemische Zeitschrift 334, 451, 1961). The purity of the lyso derivatives (greater than 90%) was checked by thin layer chromatography (TLC) on silica gel H plates developed in chloroform/methanol/2N NH4 OH (65/35/9) and visualized by ninhydrin reaction for N-lyso compounds, by α-naphthol/sulfuric acid for both gangliosides and lysogangliosides,and by a phospholipid spray for sphingosylphosphorylcholine. Lysosphingolipids were quantitated by reaction of the amine group with trinitrobenzenesulfonate. Gangliosides and lysosphingolipids were also quantitated by reaction with anthrone. The lysosphingolipids were then studied for their effect on protein kinase C activity. Protein kinase C was purified to near homogeneity by the method of Wolf et al. (J. Biol. Chem. 260, 15718, 1985), and activity was measured using a mixed micellar assay (described herein). Lysosphingolipids were added directly in aqueous solution, and allowed to equilibrate with the Triton X-100 (0.3% w/v) mixed micelles containing 6 mol % phosphatidylserine and 2 mol % dioleoylglycerol. […] Phorbol-dibutyrate binding was measured in a mixed micellar assay. Lysosphingolipids inhibited phorbol-dibutyrate binding to protein kinase C in the presence of Triton X-100 mixed micelles containing 20 mol % phosphatidylserine. […] The difference is related to the higher concentration of phosphatidylserine used in the binding assay, as both activity and binding show a high cooperative dependence on phosphatidylserine, which modulates the inhibition by lysosphingolipids. Phorbol-dibutyrate binding to human platelets and 40 kDa phosphorylation in platelets were carried out as described above. Lysosphingolipids inhibited phorbol dibutyrate binding to human platelets at concentrations in the 10-50 μM range. Inhibition of 40 kDa phosphorylation occurred over the same concentration range.

[3] = tested on: protein kinase C-induced phosphorylation of the 40 KDa polypeptide; experiment: 40K (40 kDa) protein phosphorylation in human platelets; format: cell-based; conditions: concentrations less than 100 μM
Description: They were then suspended in modified Tyrode's buffer to a concentration of 2.5×10^8 platelets/ml.
^32 Pi at 0.2 mCi/ml was added to the platelet suspension and labelling was allowed to proceed for 75 minutes at 37° C., after which the platelets were pelleted at 600×g for 10 minutes and resuspended in Tyrode's buffer to the same concentration. They were then aliquoted in Eppendorf microfuge tubes and preincubated at 37° C. for 5 minutes with the varying concentrations of sphingosine. Platelets were then stimulated with either 5 μM dioctanoylglycerol (added as an ethanol solution with the final concentration of ethanol 0.5%), 10 μM TPA, or 1 unit/ml thrombin. The reactions were stopped after 30 seconds by the addition of an equal volume of 2× sample buffer, and the samples were then boiled for 3 minutes. […] Gels were subsequently fixed in water/methanol/acetic acid (60:30:10), dried, and autoradiographed.

protein kinase C [4] = experiment: Phorbol-dibutyrate binding to protein kinase C, mixed micellar assay (Table VI); conditions: Triton X-100 mixed micelles, 20 mol % phosphatidylserine
Description: as §1

[5] = oxidative burst, PMA activation
[6] = Homo sapiens, Neutrophil, oxidative burst, PMA activation

Compound: 3-amino-3-hydroxy-3-phenyl-propanol [reference compound]
- IC50 (human neutrophils; [5]): > 100 µM

Compound: CCCCCCCCCCCCCCC[C@H](O)[C@@H](N)CO (relative stereo) [threo-Sphinganine]
- inhibition of protein kinase C (specificity) (protein kinase C [1]): inhibitors
- IC50 (human neutrophils; [6]): 24 µM
- times less effective than erythro-sphinganine (human neutrophils; [5]): 3-4 times

Compound: NC(CO)C(O)c1ccccc1 (stereo not shown) [1,3-dihydroxy-2-amino-3-phenylpropane]
- inhibition of protein kinase C (specificity) (protein kinase C [1]): not to be inhibitors
- inhibition of protein kinase C (specificity) (protein kinase C [1]; listed as 1,3-dihydroxy-2-amino-3 phenylpropane): without effect
- inhibition of PMA-induced attachment (HL-60 cells): did not inhibit

Compound: CCCCCCCCCCCCCCCC(=O)C(N)CO (stereo not shown) [3-ketosphinganine]
- inhibition of protein kinase C (specificity) (protein kinase C [1]): inhibitors

Compound: CCCCC/C=C\C/C=C\C/C=C\C/C=C\CCCC(=O)O [Arachidonate, reference compound]
- RATE of oxygen consumption, NO SPHINGANINE (human neutrophils): 4.2 nmols O2 consumed/min/10^6 cells

Compound: CCCCCCCCCCCCCCCC[N+](C)(C)C.[Br-] [CTAB, cetyl trimethylammonium bromide]
- inhibition of protein kinase C (specificity) (protein kinase C [1]; listed as cetyl triethylammonium bromide): inactive; also recorded: not to be inhibitors
- IC50 (human neutrophils; [6]): > 100 µM

Compound: CCCCCCCC(=O)OCC(CO)OC(=O)CCCCCCC (stereo not shown) [Dioctanoyl Glycerol, 1,2-dioctanoylglycerol, reference compound]
- RATE of oxygen consumption, NO SPHINGANINE (human neutrophils): 6.1 nmols O2 consumed/min/10^6 cells

Compound: CCCCCCCCCCCCCCC[C@@H](O)[C@H](CO)NC(C)=O [N-acetylsphinganine, reference compound]
- inhibition of PMA-induced attachment (HL-60 cells; at up to 500 μM): not inhibitory
- IC50 (human neutrophils; [6]): > 100 µM

Compound: CCCCCCCCCCCCC/C=C/[C@@H](O)[C@H](CO)NC(C)=O [N-acetylsphingosine]
- inhibition of protein kinase C (specificity) (protein kinase C [1]): without effect; also recorded: not to be inhibitors

Compound: CCCCCCCCCCCCCCCC(=O)NC(CO)C(O)CCCCCCCCCCCCCCC (stereo not shown) [N-palmitoyldihydrosphingosine, reference compound]
- inhibition of PMA-induced attachment (HL-60 cells): not inhibitory

Compound: CCCCCCCCN [Octylamine, reference compound]
- inhibition of protein kinase C (specificity) (protein kinase C [1]): did not inhibit
- inhibition of PMA-induced attachment (HL-60 cells): did not inhibit
- IC50 (human neutrophils; [6]): 300 µM

Compound: CCCCCCCCCCCCCCCCCCN [Stearylamine, reference compound]
- inhibition of protein kinase C (specificity) (protein kinase C [1]): nearly as effective as sphingosine
- IC50 (HL-60 cells; Homo sapiens, HL-60, read-out: 50% inhibition of PMA-induced attachment): 10 µM
- IC50 (human neutrophils; [6]): 25 µM

Compound: O[C@H]1[C@H]2[C@H](O)CCCN2C[C@H]1O [Swainsonine]
- inhibition of protein kinase C (specificity) (protein kinase C [1]): not an inhibitor

Compound: CCCCCCCCCCCCC/C=C/[C@@H](O)[C@@H](N)CO[C@@H]1O[C@H](CO)[C@@H](O[C@@H]2O[C@H](CO)[C@H](O[C@H]3O[C@H](CO)[C@H](O)[C@H](O)[C@H]3O)[C@H](O)[C@H]2O)[C@H](O)[C@H]1O [globotriosylsphingosine]
- Inhibition of Protein Kinase C, concentration giving 50% inhibition, (mol %) (protein kinase C [2]): 4.2 mol %
- IC50 (protein kinase C [2]): 180 µM

Compound: CCCCCCCCCCCCC/C=C/[C@@H](O)[C@H](CO[C@@H]1O[C@H](CO)[C@H](O)[C@H](O)[C@H]1O)NC(C)=O [reference compound]
- inhibition of protein kinase C activity (protein kinase C [2]): None of these N-acetyl derivatives inhibited
- effect on 40 kDa phosphorylation in platelets [3]: did not affect

Compound: CCCCCCCCCCCCC/C=C/[C@@H](O)[C@H](COP(=O)([O-])OCC[N+](C)(C)C)NC(C)=O [reference compound]
- inhibition of protein kinase C activity (protein kinase C [2]): None of these N-acetyl derivatives inhibited
- effect on 40 kDa phosphorylation in platelets [3]: did not affect

Compound: CCCCCCCCCCCCC/C=C/[C@@H](O)[C@@H](N)COP(=O)([O-])OCC[N+](C)(C)C [sphingosylphosphorylcholine]
- Inhibition of [3H]PDBu Binding to Protein Kinase, (mol %) (protein kinase C [4]): 11.6 mol %
- IC50 (protein kinase C [4]; read-out: Inhibition of [3H]PDBu Binding to Protein Kinase): 500 µM
- Inhibition of Protein Kinase C, concentration giving 50% inhibition, (mol %) (protein kinase C [2]): 2.8 mol %
- IC50 (protein kinase C [2]): 120 µM

Compound: sphingomyelin [reference compound]
- inhibition of protein kinase C activity (protein kinase C [2]): None of the parent compounds inhibited
